# Experimental data as given in patent publication US11679107B2 (Eisai R&D Management Co., Ltd., priority 2018, dated 2023).
# Where two headings read alike, the source gives them in different places.
# Tests used:
# [1] = tested on: NCI-H1568 cells (high MCL1); assay: Cell proliferation and viability, CellTiter-Glo, 72 hours; assay type: cell-based; settings: for GI50: geometric mean
# Outline: (§1)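 Cells grown in RPMI-1640 with 10% FBS (Panc 05.04 with added insulin, 15% FBS total) were exposed to an 11-point half-log dilution, typically 10 μM–100 pM, at 0.1% DMSO for 72 h at 37 °C. ATP content was read by CellTiter-Glo luminescence. Percent inhibition was set against a time-zero plate and DMSO vehicle wells, on a −100% (cidal) to 100% (uninhibited growth) scale.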
# [2] = tested on: Panc 05.04 cells (SF3b K700E mutant); assay: as above; assay type: cell-based; settings: for GI50: geometric mean
# Outline: as §1
# SF3b complexes = molecular target: T1, SF3b complexes (Homo sapiens, UniProt O75533+Q7RTV0); assay: Scintillation proximity assay (SPA) with [3H]-labelled pladienolide probe; assay type: binding; settings: SF3B1 (WT); geometric mean; read-out: SPA-ATS GMean IC50 (nM) SF3B1 (WT)
# T1 construct: endogenous in cells; host or cells: Nuclear extracts; A HeLa S3 extract preparation is described for the in vitro splicing assay
# Outline: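 SF3b complexes captured from nuclear extracts on anti-SF3B1 antibody SPA beads; test compounds pre-incubated 30 min before 2.5 nM [3H]-pladienolide probe added, then 30 min incubation. Bound probe read by scintillation; values from non-linear regression of concentration–response curves.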
# [3] = tested on: Ad2 variant pre-mRNAs spliced in HeLa S3 nuclear extracts; assay: In vitro splicing assay (IVS), RT-qPCR of spliced product; assay type: biochemical; settings: for IC50: geometric mean; for Ratio Ad2.1/2.2: ratio of IVS IC50 Ad2.1 to Ad2.2
# Outline: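 Ad2 variant pre-mRNA (2 ng) with FTZΔi control RNA in HeLa S3 nuclear extract (8 μg) was pre-incubated with compound or DMSO for 15 min at 30 °C. Splicing ran 90 min at 30 °C after adding 0.5 mM ATP, creatine phosphate and MgCl2. Spliced product was quantified by TaqMan RT-qPCR, normalized to DMSO, and curve-fitted.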
# [4] = NCI-H1568, read-out: CTGlo-ATS GMean GI50 (nM) 72 h NCIH1568.1, NCIH1568.1 cells, 72 h
# [5] = NCIH1568.1 cells, 72 h, −100% cidal, 0% static, 100% maximal growth
# [6] = PANC0504.1 cells, 72 h, −100% cidal, 0% static, 100% maximal growth
# [7] = Panc 05.04, read-out: CTGlo-ATS GMean GI50 (nM) 72 h PANC0504.1, PANC0504.1 cells, 72 h
# [8] = Ad2.1 pre-mRNA substrate, read-out: qPCR-IVS-ATS GMean IC50 (nM) Ad2.1
# [9] = Ad2.2 pre-mRNA substrate, read-out: qPCR-IVS-ATS GMean IC50 (nM) Ad2.2
# [10] = 72 h, NCIH1568.1, -100% = cidal, 0% = static, 100% = uninhibited growth
# [11] = NCI-H1568, read-out: CTGlo-ATS GMean GI50 (nM) 72 h NCIH1568.1, 72 h, NCIH1568.1
# [12] = 72 h, PANC0504.1, -100% = cidal, 0% = static, 100% = uninhibited growth
# [13] = Panc 05.04, read-out: CTGlo-ATS GMean GI50 (nM) 72 h PANC0504.1, 72 h, PANC0504.1
# [14] = NCI-H1568, 72 h, read-out: CTGlo-ATS GMean GI50 (nM) 72 h NCIH1568.1, NCIH1568.1 cells, 72 h
# [15] = Panc 05.04, 72 h, read-out: CTGlo-ATS GMean GI50 (nM) 72 h PANC0504.1, PANC0504.1 cells, 72 h
Compound,"GI50 [1, 4]","CTGlo-ATS Mean MinResponse % 72 h NCIH1568.1 [1, 5]","CTGlo-ATS Mean MinResponse % 72 h PANC0504.1 [2, 6]","GI50 [2, 7]",IC50 (SF3b complexes),"IC50 [3, 8]","IC50 [3, 9]","CTGlo-ATS Mean MinResponse % 72 h NCIH1568.1 [1, 10]","GI50 [1, 11]","CTGlo-ATS Mean MinResponse % 72 h PANC0504.1 [2, 12]","GI50 [2, 13]",Ratio Ad2.1/2.2 [3],"GI50 [1, 14]","GI50 [2, 15]"
C/C(=C\c1cc(F)cc(N2CCN(CCN3CCOCC3)C2=O)c1)[C@H]1OC(=O)C[C@H](O)CC[C@H](C)[C@@H](OC(=O)N2CCN(C)CC2)/C=C/[C@@H]1C [Compound 67],8.6 nM,−75.182%,−87.661%,7.27 nM,1.95 nM,22.7 nM,20.2 nM,,,,,,,
"C/C(=C\c1cccc(S(=O)(=O)N2CCC(F)(F)CC2)c1)[C@H]1OC(=O)C[C@H](O)CC[C@H](C)[C@@H](OC(=O)N2CCN(C)CC2)/C=C/[C@@H]1C [Compound 202, [(2S,3S,4E,6R,7S,10R)-2-[(E)-1-[3-(4,4-difluoropiperidin-1-yl)sulfonylphenyl]prop-1-en-2-yl]-10-hydroxy-3,7-dimethyl-12-oxo-1-oxacyclododec-4-en-6-yl] 4-methylpiperazine-1-carboxylate]",,,,,14.1 nM,4470 nM,25.2 nM,−59.083%,29.4 nM,−93.824%,24.7 nM,177.387,,
"C/C(=C\c1ccc(C)c(S(=O)(=O)N2CCCC2)c1)[C@H]1OC(=O)C[C@H](O)CC[C@H](C)[C@@H](OC(=O)N2CCN(C)CC2)/C=C/[C@@H]1C [Compound 203, [(2S,3S,4E,6R,7S,10R)-10-hydroxy-3,7-dimethyl-2-[(E)-1-(4-methyl-3-pyrrolidin-1-ylsulfonylphenyl)prop-1-en-2-yl]-12-oxo-1-oxacyclododec-4-en-6-yl] 4-methylpiperazine-1-carboxylate]",,,,,10.1 nM,14400 nM,69.7 nM,−36.664%,47.3 nM,−94.627%,45 nM,207.149,,
C/C(=C\c1cc(F)c2c(c1)nnn2CC1CC1)[C@H]1OC(=O)C[C@H](O)CC[C@H](C)[C@@H](OC(=O)N2CCN(C)CC2)/C=C/[C@@H]1C [Compound 139],142 nM,−61.022%,−21.195%,240 nM,4.32 nM,> 25000 nM,93.2 nM,,,,,,,
C/C(=C\c1cc(F)c2cnn(CC(=O)N3CCOCC3)c2c1)[C@H]1OC(=O)C[C@H](O)CC[C@H](C)[C@@H](OC(=O)N2CCN(C)CC2)/C=C/[C@@H]1C [Compound 130],12 nM,−72.458%,−93.452%,18.3 nM,37.1 nM,43.9 nM,30 nM,,,,,,,
C/C(=C\c1cccc2[nH]ncc12)[C@H]1OC(=O)C[C@H](O)CC[C@H](C)[C@@H](OC(=O)N2CCN(C)CC2)/C=C/[C@@H]1C [Compound 5],59.7 nM,−38.293%,−17.631%,47.2 nM,6.61 nM,1500 nM,94.7 nM,,,,,,,
C/C(=C\c1cc(F)cc(N(C)C2CCN(C)CC2)c1)[C@H]1OC(=O)C[C@H](O)CC[C@H](C)[C@@H](OC(=O)N2CCN(C)CC2)/C=C/[C@@H]1C [Compound 31],89.4 nM,−98.108%,−90.716%,53 nM,43.2 nM,50.1 nM,14.6 nM,,,,,,,
C/C(=C\c1cc(F)cc(N2CCN(CCO)C2=O)c1)[C@H]1OC(=O)C[C@H](O)CC[C@H](C)[C@@H](OC(=O)N2CCN(C)CC2)/C=C/[C@@H]1C [Compound 65],,−68.297%,−88.951%,,2.83 nM,26.2 nM,17.3 nM,,,,,,5.88 nM,5.74 nM
COCC(=O)N1CCN(c2cc(F)cc(/C=C(\C)[C@H]3OC(=O)C[C@H](O)CC[C@H](C)[C@@H](OC(=O)N4CCN(C)CC4)/C=C/[C@@H]3C)c2)CC1 [Compound 108],2.47 nM,−79.118%,−82.618%,3.31 nM,2.03 nM,16.8 nM,14.3 nM,,,,,,,
C/C(=C\c1cc(F)cc(N2CCN(C(=O)CO)CC2)c1)[C@H]1OC(=O)C[C@H](O)CC[C@H](C)[C@@H](OC(=O)N2CCN(C)CC2)/C=C/[C@@H]1C [Compound 135],2.41 nM,−84.225%,−90.575%,2.46 nM,3.67 nM,14.9 nM,14.9 nM,,,,,,,
C/C(=C\c1cc(F)cc(N2CCOCC2)c1)[C@H]1OC(=O)C[C@H](O)CC[C@H](C)[C@@H](OC(=O)N2CCN(C)CC2)/C=C/[C@@H]1C [Compound 3],,−78.460%,−87.809%,,1.74 nM,18.6 nM,10.3 nM,,,,,,2.42 nM,2.96 nM
C/C(=C\c1cccc(N(C)C2CCOCC2)c1)[C@H]1OC(=O)C[C@H](O)CC[C@H](C)[C@@H](OC(=O)N2CCN(C)CC2)/C=C/[C@@H]1C [Compound 170],25.9 nM,−56.895%,−96.570%,23.2 nM,4.93 nM,11000 nM,31 nM,,,,,,,
C/C(=C\c1cc(F)cc(N2CCC[C@@H]2CO)c1)[C@H]1OC(=O)C[C@H](O)CC[C@H](C)[C@@H](OC(=O)N2CCN(C)CC2)/C=C/[C@@H]1C [Compound 44],,−14.871%,−92.314%,,8.26 nM,12800 nM,86.6 nM,,,,,,67.2 nM,41.5 nM
C/C(=C\c1cc(F)c2nnn(CC3CC3)c2c1)[C@H]1OC(=O)C[C@H](O)CC[C@H](C)[C@@H](OC(=O)N2CCN(C)CC2)/C=C/[C@@H]1C [Compound 137],1.17 nM,−81.149%,−86.584%,1.61 nM,1.21 nM,27.6 nM,12.1 nM,,,,,,,
